Laboratory results taken from PMC10979105, “A simple method to resolve rate constants when the binding mechanism obeys induced fit or conformational selection” (The Journal of Biological Chemistry, 2024).
Values joined by “and” are separate entries in the source; they are usually repeats but may differ in a detail not shown here. Equal entries are not always repeated.

Key:
[1] = test system: prethrombin-2 (S195A mutant); experiment: Rapid kinetics (stopped-flow) of FPR binding to prethrombin-2
Source text: Rapid kinetics of FPR binding to thrombin resolved the two independent relaxations (Equations 3 and 4) for CS and the four independent rate constants. On the other hand, similar measurements for prethrombin-2 produced only a saturable relaxation increasing with [FPR] (Fig. 2A) ([30]), thereby preventing resolution of the four independent constants and a full comparison with the mature protease thrombin. This situation provides an ideal test for application of the method based on Equation 11. The saturable relaxation for FPR binding to prethrombin-2 increases from α(0) = […] to α(∞) = 150 ± 20 s^−1, with a midpoint xm = 200 ± 20 μM and α(xm) = 88 ± 9 s^−1 (Fig. 2A and Table 2). […] Interpretation of the saturable relaxation in terms of CS gives k12 = 150 ± 20 s^−1 and koff = 25 ± 3 s^−1. Application of Equation 11 then yields kon = 4.0 ± 0.4 μM^−1s^−1 and Equation 9 gives αˆ(0)=k12+k21 = 890 ± 90 s^−1, so k21 = 740 ± 70 s^−1 (Table 2). The value of kon is almost identical to that reported for the mature protease thrombin (2.6 ± 0.3 μM^−1s^−1), whilst the value of koff is 40-fold higher (25 ± 3 s^−1 versus 0.60 ± 0.06 s^−1) ([30]). […] The conclusion is independent of whether FPR binding to prethrombin-2 is interpreted according to CS or IF. Application of the conversion formulas in Table 1 gives rate constants for IF equal to kon = 4.0 ± 0.4 μM^−1s^−1, koff = 765 ± 80 s^−1, k23 = 120 ± 10 s^−1, and k32 = 29 ± 3 s^−1 (Table 2), thereby making the contribution of a decreased rate of dissociation in the protease even more evident. Importantly, the two sets of rate constants for IF and CS yield the same value for Kd,app (Table 2), as shown by application of Equation 10 and the conversion formulas in Table 1. The importance of koff in setting the difference between ligand binding to prethrombin-2 and thrombin was anticipated by previous studies ([30]). The method based on Equation 11 provides a quantitative estimate of the difference and adds rigor to previous conclusions.
(§1) Figure 2 Binding of FPR to thrombin zymogens.A, rapid kinetics of FPR binding to the zymogens prothrombin (closed circles) and prethrombin-2 (open circles), showing a saturable relaxation associated with the interaction. The lack of information on a fast relaxation increasing linearly with [FPR] prevented assignment of the value of kon in the original report ([30]). Curves were drawn with the empirical expression [α(0)xm+α(∞)x]/(xm+x) , where x =[FPR], with best-fit parameters listed in Table 2. B, fractional saturation of FPR binding to prothrombin (closed circles) and prethrombin-2 (open circles). These values, together with the parameters derived from the plots in panel A, allow for derivation of the value of kon from Equation 11. […] Data in panels A and B were taken from ([30]) and were obtained under the following experimental conditions: 400 mM ChCl, 50 mM Tris, 0.1% PEG8000, pH 8, at 15 °C. CS, conformational selection; FPR, H-D-Phe-Pro-Arg-p-nitroanilide; IF, induced fit.
(§2) The data analyzed in this study, that is, FPR binding to prethrombin-2, prothrombin, and thrombin (Figs. 2, A and B and 3, A and B) were taken from ([30]) without modification. The methodology used to produce the recombinant proteins, measure FPR binding by stopped-flow or equilibrium titrations is reported in ([30]) and references therein. Values of the slow relaxation α(x) (Fig. 1, A and B, 2A and 3A) are measured by stopped-slow as a function of the ligand concentration and derived from fit of the time evolution of the interaction according to the expression ([1])(12) A(x,t)=A0(x)+A1(x)exp{−α(x)t}

thrombin mutant S195A [2] = biological target: thrombin mutant S195A; set-up: method as in PMID 29511224; details: fluorescence titration at equilibrium; 400 mM ChCl, 50 mM Tris, 0.1% PEG8000, pH 8, 15 °C; read-out: Kd,app; cited from earlier work
prothrombin [3] = experiment: Rapid kinetics (stopped-flow) of FPR binding to prothrombin; details: model independent, fit of data from ref 30
Source text: as §1
The method also offers a simple test of whether the experimental data under consideration require more complex binding mechanisms than IF or CS. This is an important property of the method that may prompt reconsideration of current interpretations of ligand binding in terms of IF or CS made from analysis of a single saturable relaxation. The denominator of Equation 11 introduces a constraint on the relative values of Kd,app and xm . If the resulting term is negative, the model independent parameters (Equations (5), (6), (7) and 10) of the slow relaxation cannot be interpreted in terms of IF or CS. The data describing the kinetic relaxation (Fig. 1, A and B) and equilibrium binding (Fig. 1C) become incompatible when interpreted with Equations 9 and 10 and more elaborate mechanisms should be considered. We illustrate this point for the case of FPR binding to prothrombin, which is the physiological zymogen precursor of thrombin ([23]). Prothrombin is composed of a protease domain identical to prethrombin-2 linked to additional kringles and Gla domains that are shed during activation to thrombin by prothrombinase in the penultimate step of the coagulation cascade ([23], [31]). Because prothrombin and prethrombin-2 share the same protease domain, binding of FPR may be expected to take place with a similar affinity and mechanism in the two zymogens. […]
as §2, with “The methodology used to produce the recombinant proteins, measure FPR binding by stopped-flow or equilibrium titrations is reported in ([30]) and references therein.” left out

prothrombin [4] = biological target: prothrombin; set-up: method as in PMID 29511224; details: fluorescence titration at equilibrium; 400 mM ChCl, 50 mM Tris, 0.1% PEG8000, pH 8, 15 °C; read-out: Kd,app; cited from earlier work
thrombin mutant S195A [5] = test system: thrombin mutant S195A; set-up: method as in PMID 29511224; details: CS; from analysis of two relaxations; cited from earlier work
[6] = IF, conversion formulas of Table 1
[7] = model independent, pH 8, 15 °C, fit of data from ref 30

- αˆ(0)=k12+k21 ([1]; CS, from Equation 9): 890 ± 90 s⁻¹
- k12 ([1]; CS, method of this paper): 150 ± 20 s⁻¹ and 150 ± 10 s⁻¹
- k21 ([1]; CS, method of this paper): 740 ± 70 s⁻¹
- koffCS ([1]; CS, method of this paper): 25 ± 3 s⁻¹
- konCS ([1]; CS, method of this paper): 4e+06 ± 400000 M⁻¹ s⁻¹
- koff higher for prethrombin-2 than for thrombin ([1]; CS, prethrombin-2 versus thrombin): 40 fold
- k23 [1, 6]: 120 ± 10 s⁻¹
- k32 [1, 6]: 29 ± 3 s⁻¹
- koffIF [1, 6]: 765 ± 80 s⁻¹
- konIF [1, 6]: 4e+06 ± 400000 M⁻¹ s⁻¹
- kon ([1]; model independent, derived from Equation 11): 4e+06 ± 400000 M⁻¹ s⁻¹
- α(0), lower asymptote of slow relaxation ([1]; model independent, 400 mM ChCl, 50 mM Tris, 0.1% PEG8000, pH 8, 15 °C, fit of data from ref 30): 25 ± 0.3 s⁻¹ and 25 ± 2 s⁻¹
- xm, midpoint of the slow relaxation [1, 7]: 200 ± 20 µM
- α(xm), slow relaxation at midpoint [1, 7]: 88 ± 9 s⁻¹
- α(∞), asymptote of slow relaxation [1, 7]: 150 ± 20 s⁻¹ and 150 ± 10 s⁻¹
- α(0), asymptote of slow relaxation (prothrombin [3]; 400 mM ChCl, 50 mM Tris, 0.1% PEG8000, pH 8, 15 °C): 45 ± 4 s⁻¹ and 45 ± 5 s⁻¹
- xm, midpoint of the slow relaxation (prothrombin [3]; pH 8, 15 °C): 54 ± 5 µM
- α(xm), slow relaxation at midpoint (prothrombin [3]; pH 8, 15 °C): 26 ± 3 s⁻¹
- α(∞), asymptote of slow relaxation (prothrombin [3]; pH 8, 15 °C): 6.9 ± 0.7 s⁻¹
Compound: N=C(N)NCCC[C@H](NC(=O)[C@@H]1CCCN1C(=O)[C@H](N)Cc1ccccc1)C(=O)Nc1ccc([N+](=O)[O-])cc1 [FPR, H-D-Phe-Pro-Arg-p-nitroanilide]
- Kd (thrombin mutant S195A [2]): 0.28 ± 0.02 µM
- Kd (prothrombin [4]): 195 ± 20 µM
- k12 (thrombin mutant S195A [5]): 16 ± 1 s⁻¹
